Data reported in US6616945B1, “Method for making a pharmaceutical formulation” (Leiras Oy, priority 1997, dated 2003).

Assay: X-ray diffraction (XRD) study of crystallinity / amorphous content
Assay type: physicochemical
Procedure: FIG. 1 presents the X-ray diffraction (XRD) patterns of three salbutamol samples.
In FIG. 1, the XRD patterns of the three salbutamol samples, which were each treated differently before analysis is shown as follows:
Also the initial mean particle size had been increased close to the upper acceptable limit.
Samples of some months ago micronized material were suspended in n-heptane and stirred 7 and 16 hours at 70° C., followed by drying.
Specific surface area and the energy for moisture absorption during transfer from 0 to 80% RH were metered: […]

## salbutamol sulphate
Micronized drug stored 10 hors at 40° C. and 50% RH
  change in amount of amorphous matter: clear decrease
Stirred 7 hours at 50° C. as n-heptane suspension
  crystallinity by XRD: slightly less
Stirred 7 hours at 60° C. as n-heptane suspension
  crystallinity by XRD: practically total crystallinity
Stirred 7 hours at 70° C. as n-heptane suspension
  crystallinity by XRD: practically total crystallinity
Untreated micronized sample
  amorphous content by XRD: a detectable amount of the drug was amorphous
